Measurements reported in ChEMBL document CHEMBL1130570, “Cyclic saligenyl phosphotriesters of 2,3-dideoxy-2,3-didehydrothymidine (d4T) a new pro-nucleotide approach” (Bioorg Med Chem Lett, 1997).
Values after ≈ are worked out from the molar mass of the structure shown.

Legend:
[1] = tested on: CCRF-CEM; assay: Effective concentration that causes 50 % inhibition of HIV-1 in CEM/0 cells, was determined.; type: functional, cell-based; details: Homo sapiens
[2] = tested on: CCRF-CEM; assay: Effective concentration that causes 50 % inhibition of HIV-2 in CEM/TK- cells, was determined.; type: functional, cell-based; details: Homo sapiens
[3] = tested on: CCRF-CEM; assay: Effective concentration that causes 50 % inhibition of HIV-2 in CEM/0 cells, was determined.; type: functional, cell-based; details: Homo sapiens
[4] = Partition coefficient in 1-octanol / phosphate buffer at pH 6.8; type: physicochemical; details: octanol/water

Question: For `Cc1cn([C@H]2C=C[C@@H](CO)O2)c(=O)[nH]c1=O` [STAVUDINE], which EC50 [1] is on record?
Answer: Its EC50 is 0.4 µg/mL (≈ 1.78 µM).

Question: What about the EC50 [2] of the same molecule?
Answer: Its EC50 is 45 µg/mL (≈ 201 µM).

Question: And the EC50 [3]?
Answer: Its EC50 is 1.45 µg/mL (≈ 6.47 µM).

Question: And the PC [4]?
Answer: Its PC is 0.15.

Question: For `Cc1cn([C@H]2C=C[C@@H](COP3(=O)OCc4ccccc4O3)O2)c(=O)[nH]c1=O` (some centres undefined), which PC [4] is on record?
Answer: Its PC is 1.9.

Question: For `Cc1ccc2c(c1)COP(=O)(OC[C@@H]1C=C[C@H](n3cc(C)c(=O)[nH]c3=O)O1)O2` (some centres undefined), which PC [4] is on record?
Answer: Its PC is 5.4.

Question: Which EC50 [1] does the source give for `Cc1cn([C@H]2C=C[C@@H](COP3(=O)OCc4cc(Cl)ccc4O3)O2)c(=O)[nH]c1=O` (some centres undefined) here?
Answer: Its EC50 is 0.18 µg/mL (≈ 0.422 µM).

Question: And the EC50 [2]?
Answer: The EC50 was 20 µg/mL (≈ 46.9 µM).

Question: What about the EC50 [3] of the same molecule?
Answer: The EC50 was 0.25 µg/mL (≈ 0.586 µM).

Question: What about the PC [4] of the same molecule?
Answer: The PC was 7.7.

Question: For `Cc1cn([C@H]2C=C[C@@H](COP3(=O)OCc4cc([N+](=O)[O-])ccc4O3)O2)c(=O)[nH]c1=O` (some centres undefined), which EC50 [1] is on record?
Answer: The EC50 was 0.29 µg/mL (≈ 0.663 µM).

Question: What about the EC50 [2] of the same molecule?
Answer: The EC50 was 40 µg/mL (≈ 91.5 µM).

Question: What about the EC50 [3] of the same molecule?
Answer: Its EC50 is 0.4 µg/mL (≈ 0.915 µM).

Question: And the PC [4]?
Answer: The PC was 1.5.
